Among the data in ChEMBL document CHEMBL5729205, “Rho-associated protein kinase inhibitor, pharmaceutical composition comprising same, and preparation method and use thereof” (2022) are IC50 values, retold here.

One may read the IC50 as the concentration that inhibits the measured activity by half.

This test concerns the target Rho-associated protein kinase 2 (Homo sapiens, UniProt O75116). In words: Biological Assay: The kinase IC50 was determined by a commercialized CISBIO kinase detection kit, HTRF KinEASE-STK S2 kit (62ST2PEC). ROCK2 (01-119) employed in the reaction was purchased from Carna Biosciences.Before the assay, the following working solutions as needed were formulated with corresponding reagents according to the instruction of the kinase detection kit: 1×kinase buffer, 5×STK-52 substrate working solution (1.5 μM) and 5×ATP working solution (1.5 μM), 5×ROCK2 kinase working solution, 4×Streptavidin-XL665 working solution, and 4×STK-Ab-Cryptate 2 detection solution. Then the assay was performed according to the following procedure.A solution of a compound at a concentration of 10000 nM was prepared with the 1×kinase buffer containing 2.5% DMSO. Gradient dilution of the solution of the compound was performed with the kinase buffer containing DMSO, so as to obtain solutions of a test compound at 9 different concentrations. In addition to wells of test compounds, a positive well (containing all the reagents except the compound) and a negative well (containing all the reagents except the test compound and kinase) were set. Except for the control wells (positive and negative wells), a solution of a test compound (4 μL) was added to each of the reaction wells, and a solution of 2.5% DMSO was added to the control wells. Then the substrate (2 μM, i.e., 2 μL. 5×STK-S2 substrate working solution) was added to each of the reaction wells. The 5×ROCK2 kinase working solution (2 μL, containing 1.4 ng ROCK2 kinase) was added to each of the reaction wells except for the negative well, the volume of which was made up with the 1×kinase buffer (2 μL). The 5×ATP working solution (2 μL) was added to each of the reaction wells, and the mixtures were incubated at room temperature for 2 hours. After the kinase reaction was complete, the 4×Streptavidin-XL665 working solution was added to each of the reaction wells, the solutions were mixed, followed by immediate addition of the 4×STK-Ab-Cryptate 2 detection solution (5 μL), and the mixtures were incubated at room temperature for 1 hour. The fluorescence signal was read on ENVISION (Perkinelmer) (excitation wavelength: 320 nm, and emission wavelength: 665 nm and 615 nm). The inhibitory rate in each well was calculated based on the fluorescence intensity value: ER (Emission Ratio)=(fluorescence intensity at 665 nm/fluorescence intensity at 615 nm); inhibitory rate=(ERpositive−ERtest compound)/(ERpositive−ERnegative)*100%. Curves were plotted and fitted to obtain the median inhibitory concentration (IC50) of each teat compound with the PRISM 5.0 software.

The structures appear in SMILES notation.

Rho-associated protein kinase 2, sequence (O75116 whole entry): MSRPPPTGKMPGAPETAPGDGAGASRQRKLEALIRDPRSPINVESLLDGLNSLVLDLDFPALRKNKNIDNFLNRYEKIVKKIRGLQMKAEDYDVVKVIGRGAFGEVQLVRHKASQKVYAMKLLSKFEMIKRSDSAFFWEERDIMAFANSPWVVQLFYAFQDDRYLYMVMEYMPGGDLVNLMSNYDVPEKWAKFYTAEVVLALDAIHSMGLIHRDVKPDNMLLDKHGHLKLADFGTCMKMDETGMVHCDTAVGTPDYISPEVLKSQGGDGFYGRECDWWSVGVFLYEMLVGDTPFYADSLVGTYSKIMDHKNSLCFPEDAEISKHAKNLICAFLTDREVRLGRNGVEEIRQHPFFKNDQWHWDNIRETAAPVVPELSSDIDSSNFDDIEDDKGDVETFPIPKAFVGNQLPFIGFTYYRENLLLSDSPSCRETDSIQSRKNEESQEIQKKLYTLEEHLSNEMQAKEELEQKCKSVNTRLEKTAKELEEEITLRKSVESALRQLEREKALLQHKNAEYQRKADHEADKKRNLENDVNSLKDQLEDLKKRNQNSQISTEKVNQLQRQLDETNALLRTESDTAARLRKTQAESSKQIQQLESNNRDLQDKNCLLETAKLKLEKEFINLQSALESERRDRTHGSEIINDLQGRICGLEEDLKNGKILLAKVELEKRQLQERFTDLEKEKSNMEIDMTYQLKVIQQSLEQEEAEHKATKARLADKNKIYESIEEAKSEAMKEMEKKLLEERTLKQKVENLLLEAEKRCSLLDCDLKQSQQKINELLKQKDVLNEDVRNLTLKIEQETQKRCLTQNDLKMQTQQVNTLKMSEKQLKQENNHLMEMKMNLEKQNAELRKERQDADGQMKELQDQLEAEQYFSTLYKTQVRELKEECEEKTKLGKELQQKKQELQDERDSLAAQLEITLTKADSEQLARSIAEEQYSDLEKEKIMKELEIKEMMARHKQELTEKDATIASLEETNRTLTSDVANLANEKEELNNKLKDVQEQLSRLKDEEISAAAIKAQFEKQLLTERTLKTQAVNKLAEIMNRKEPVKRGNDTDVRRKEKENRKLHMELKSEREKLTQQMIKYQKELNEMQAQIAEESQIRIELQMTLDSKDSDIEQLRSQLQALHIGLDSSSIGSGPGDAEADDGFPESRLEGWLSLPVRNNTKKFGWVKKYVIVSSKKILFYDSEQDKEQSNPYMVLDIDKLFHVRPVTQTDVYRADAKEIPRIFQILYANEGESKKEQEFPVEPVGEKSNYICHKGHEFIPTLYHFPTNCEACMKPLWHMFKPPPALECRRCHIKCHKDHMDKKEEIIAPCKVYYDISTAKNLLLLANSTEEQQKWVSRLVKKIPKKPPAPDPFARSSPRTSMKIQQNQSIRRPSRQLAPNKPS

With `O=C(C1CC(F)(F)C1)N1Cc2ccc(-c3nc(Nc4ccc(-c5cn[nH]c5)cc4)c4sccc4n3)cc2C1`, the IC50 is 60 nM.

In the case of `COCCn1c(C(=O)N2CC(F)(F)C2)cc2ccc(-c3nccc(Nc4ccc(-c5cn[nH]c5)cc4)n3)cc21`, the IC50 was 355 nM.

With `Cn1c(C(=O)N2CC(F)(F)C2)cc2ccc(-c3nccc(Nc4ccc(-c5cn[nH]c5)cn4)n3)cc21`, the IC50 is 39 nM.

With `O=C(C1CC(F)(F)C1)N1Cc2ccc(-c3cncc(Nc4ccc(-c5cn[nH]c5)cc4)n3)cc2C1`, the IC50 was 39 nM.

As to `Cn1c(C(=O)N2CC(F)(F)C2)cc2ccc(-c3nc4c(c(Nc5ccc(-c6cn[nH]c6)cc5)n3)CNC4)cc21`, the IC50 was 4 nM.

As for `CC1(C(=O)N2Cc3ccc(-c4nccc(Nc5ccc(-c6cn[nH]c6)cc5)n4)cc3C2)CC(F)(F)C1`, the IC50 is 22 nM.

With `CN1Cc2nc(-c3ccc4cc(C(=O)N5CC(F)(F)C5)n(C)c4c3)nc(Nc3ccc(-c4cn[nH]c4)cc3)c2C1`, the IC50 was 14 nM.

On to `O=C(Oc1ccccc1)N1Cc2ccc(-c3nccc(Nc4ccc(-c5cn[nH]c5)cc4)n3)cc2C1`, for which the IC50 was 114 nM.

As for `O=C(c1cc2ccc(-c3nccc(Nc4ccc(-c5cn[nH]c5)cc4)n3)cc2[nH]1)N1CCCC1`, the IC50 was 240 nM.

For `O=C(c1cc2ccc(-c3nccc(Nc4ccc5[nH]ncc5c4)n3)cc2[nH]1)N1CC2CNCC2C1` (centres undefined), the IC50 was 412 nM.

As for `O=C(C1CC(F)(F)C1)N1Cc2ccc(-c3nc(Nc4ccc5[nH]ncc5c4)c4sccc4n3)cc2C1`, the IC50 is 129 nM.

In the case of `O=C(c1cccnc1)N1Cc2ccc(-c3nccc(Nc4ccc(-c5cn[nH]c5)cc4)n3)cc2C1`, the IC50 was 393 nM.

With `O=C(NC1CCN(c2ccncc2Cl)CC1)c1cc2ccc(-c3nccc(Nc4ccc5[nH]ncc5c4)n3)cc2[nH]1`, the IC50 was 14 nM.

For `Cn1c(C(=O)N2CC(F)(F)C2)cc2ccc(-c3nccc(Nc4ccc(-c5cn[nH]c5)nc4)n3)cc21`, the IC50 was 27 nM.

As for `Cn1c(C(=O)N2CC(F)(F)C2)cc2ccc(-c3nccc(Nc4ccc(-c5cn[nH]c5)cc4O)n3)cc21`, the IC50 was 34 nM.

`O=C(C1CC(F)(F)C1)N1Cc2ccc(-c3nc(Nc4ccc(-c5cn[nH]c5)cc4)c4[nH]ccc4n3)cc2C1`: the IC50 is 29 nM.

Regarding `O=C(c1cc2ccc(-c3nccc(Nc4ccc(-c5cn[nH]c5)cc4)n3)cc2n1CC(F)F)N1CC(F)(F)C1`, the IC50 was 159 nM.

In the case of `C[C@@H](NC(=O)c1cc2ccc(-c3nccc(Nc4ccc5[nH]ncc5c4)n3)cc2[nH]1)c1ccc(C(F)(F)F)nc1`, the IC50 was 90 nM.

With `O=C(OC1CC(F)(F)C1)N1Cc2ccc(-c3ncc(F)c(Nc4ccc(-c5cn[nH]c5)cc4)n3)cc2C1`, the IC50 is 69 nM.

With `CC(C)NC(=O)c1cc2ccc(-c3nc(Cc4ccccc4)cc(Nc4ccc5[nH]ncc5c4)n3)cc2[nH]1`, the IC50 is 350 nM.

As for `Cn1ccc2nc(-c3ccc4cc(C(=O)N5CC(F)(F)C5)n(C)c4c3)nc(Nc3ccc(-c4cn[nH]c4)cc3)c21`, the IC50 is 76 nM.

On to `CCn1c(C(=O)N2CC(F)(F)C2)cc2ccc(-c3nccc(Nc4ccc(-c5cn[nH]c5)cc4)n3)cc21`, for which the IC50 was 118 nM.

Consider `O=C(C1CC(F)(F)C1)N1Cc2ccc(-c3nc(Nc4ccc(-c5cn[nH]c5)cc4)c4occc4n3)cc2C1`, for which the IC50 was 18 nM.

As to `O=C(C1CC(F)(F)C1)N1CCc2cc(-c3nccc(Nc4ccc(-c5cn[nH]c5)cc4)n3)ccc2C1`, the IC50 is 130 nM.

As for `O=C(C1CC(F)(F)C1)N1Cc2ccc(-c3nc4c(c(Nc5ccc(-c6cn[nH]c6)cc5)n3)CNC4)cc2C1`, the IC50 is 10 nM.

For `Cc1[nH]ncc1-c1ccc(Nc2nc(-c3ccc4c(c3)CN(C(=O)C3CC(F)(F)C3)C4)ncc2F)cc1`, the IC50 is 93 nM.

With `COCn1c(C(=O)N2CC(F)(F)C2)cc2ccc(-c3ncnc(Nc4ccc(-c5cn[nH]c5)cc4)n3)cc21`, the IC50 is 427 nM.

Regarding `O=C(N1CCc2ccc(-c3nccc(Nc4ccc(-c5cn[nH]c5)cc4)n3)cc2C1)N1CC(F)(F)C1`, the IC50 is 214 nM.

Take `N=C(N)N1CCC2(CC1)CCN(C(=O)c1cc3ccc(-c4nccc(Nc5ccc6[nH]ncc6c5)n4)cc3[nH]1)CC2`: the IC50 is 240 nM.

Take `COc1cnc(-c2ccc3cc(C(=O)N4CC(F)(F)C4)[nH]c3c2)nc1Nc1ccc(-c2cn[nH]c2)cc1`: the IC50 was 23 nM.

For the molecule `COc1cc(-c2cn[nH]c2)ccc1Nc1ccnc(-c2ccc3c(c2)CN(C(=O)C2CC(F)(F)C2)C3)n1`, the IC50 was 21 nM.

As for `O=C(C1CCOCC1)N1Cc2ccc(-c3ncc(F)c(Nc4ccc(-c5cn[nH]c5)cc4)n3)cc2C1`, the IC50 was 162 nM.

For `O=C(C1CCC(F)(F)CC1)N1CCc2ccc(-c3ncc(F)c(Nc4ccc(-c5cn[nH]c5)cc4)n3)cc2C1`, the IC50 is 477 nM.

Regarding `CN1Cc2nc(-c3ccc4c(c3)CN(C(=O)C3CC(F)(F)C3)C4)nc(Nc3ccc(-c4cn[nH]c4)cc3)c2C1`, the IC50 was 40 nM.

Consider `COCn1c(C(=O)N2CC(F)(F)C2)cc2ccc(-c3ncc(F)c(Nc4ccc(-c5cn[nH]c5)cc4)n3)cc21`, for which the IC50 was 255 nM.

On to `Cn1c(C(=O)N2CC(F)(F)C2)cc2ccc(-c3nc4c(c(Nc5ccc(-c6cn[nH]c6)cc5)n3)COC4)cc21`, for which the IC50 was 10 nM.

As for `O=C(c1ccncc1)N1Cc2ccc(-c3nccc(Nc4ccc(-c5cn[nH]c5)cc4)n3)cc2C1`, the IC50 was 313 nM.

On to `C#CC1CN(C(=O)c2cc3ccc(-c4nccc(Nc5ccc(-c6cn[nH]c6)cc5)n4)cc3n2C)C1`, for which the IC50 was 322 nM.

Take `CC1(C(=O)N2CCc3ccc(-c4ncc(F)c(Nc5ccc(-c6cn[nH]c6)cc5)n4)cc3C2)CC(F)(F)C1`: the IC50 was 331 nM.

Turning to `O=C(C1CC(F)(F)C1)N1CCc2ccc(-c3nccc(Nc4ccc(-c5cn[nH]c5)cc4)n3)cc2C1`, the IC50 is 214 nM.

For `COCn1c(C(=O)N2CC(F)(F)C2)cc2ccc(-c3nc4c(c(Nc5ccc(-c6cn[nH]c6)cc5)n3)CNC4)cc21`, the IC50 is 27 nM.

In the case of `Cc1cnc(-c2ccc3cc(C(=O)N4CC(F)(F)C4)n(C)c3c2)nc1Nc1ccc(-c2cn[nH]c2)cc1`, the IC50 was 19 nM.

Consider `O=C(OC1CC(F)(F)C1)N1Cc2ccc(-c3nccc(Nc4ccc5[nH]ncc5c4)n3)cc2C1`, for which the IC50 was 19 nM.

As to `Cn1c(C(=O)N2CC(F)(F)C2)cc2ccc(-c3nc(Nc4ccc(-c5cn[nH]c5)cc4)c4occc4n3)cc21`, the IC50 is 80 nM.
